Test results taken from PMC4959548 (Biochemical pharmacology, 2015).

T1: OATP1B3 (Homo sapiens, UniProt Q9NPD5)
T1 sequence (Q9NPD5 1-702): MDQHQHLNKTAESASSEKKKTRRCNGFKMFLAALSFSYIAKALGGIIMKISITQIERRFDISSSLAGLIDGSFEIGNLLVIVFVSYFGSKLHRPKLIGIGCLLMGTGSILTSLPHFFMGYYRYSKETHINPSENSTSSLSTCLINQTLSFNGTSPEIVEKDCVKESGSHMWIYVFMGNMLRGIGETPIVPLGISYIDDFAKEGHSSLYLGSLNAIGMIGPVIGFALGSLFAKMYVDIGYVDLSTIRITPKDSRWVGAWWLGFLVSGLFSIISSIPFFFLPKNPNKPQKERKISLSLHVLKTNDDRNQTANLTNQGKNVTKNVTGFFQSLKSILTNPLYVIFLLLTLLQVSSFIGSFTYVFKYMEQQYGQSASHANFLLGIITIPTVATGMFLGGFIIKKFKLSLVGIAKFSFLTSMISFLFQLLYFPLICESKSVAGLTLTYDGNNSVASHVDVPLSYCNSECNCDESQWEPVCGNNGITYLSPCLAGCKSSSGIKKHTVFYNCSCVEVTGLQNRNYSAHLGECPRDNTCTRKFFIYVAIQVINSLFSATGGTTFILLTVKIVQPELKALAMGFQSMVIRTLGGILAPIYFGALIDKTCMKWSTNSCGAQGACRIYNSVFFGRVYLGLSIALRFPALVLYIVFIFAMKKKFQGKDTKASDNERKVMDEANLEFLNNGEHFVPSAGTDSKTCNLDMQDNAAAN

T2: OATP1B1 (Homo sapiens, UniProt Q9Y6L6)
T2 sequence (Q9Y6L6 1-691): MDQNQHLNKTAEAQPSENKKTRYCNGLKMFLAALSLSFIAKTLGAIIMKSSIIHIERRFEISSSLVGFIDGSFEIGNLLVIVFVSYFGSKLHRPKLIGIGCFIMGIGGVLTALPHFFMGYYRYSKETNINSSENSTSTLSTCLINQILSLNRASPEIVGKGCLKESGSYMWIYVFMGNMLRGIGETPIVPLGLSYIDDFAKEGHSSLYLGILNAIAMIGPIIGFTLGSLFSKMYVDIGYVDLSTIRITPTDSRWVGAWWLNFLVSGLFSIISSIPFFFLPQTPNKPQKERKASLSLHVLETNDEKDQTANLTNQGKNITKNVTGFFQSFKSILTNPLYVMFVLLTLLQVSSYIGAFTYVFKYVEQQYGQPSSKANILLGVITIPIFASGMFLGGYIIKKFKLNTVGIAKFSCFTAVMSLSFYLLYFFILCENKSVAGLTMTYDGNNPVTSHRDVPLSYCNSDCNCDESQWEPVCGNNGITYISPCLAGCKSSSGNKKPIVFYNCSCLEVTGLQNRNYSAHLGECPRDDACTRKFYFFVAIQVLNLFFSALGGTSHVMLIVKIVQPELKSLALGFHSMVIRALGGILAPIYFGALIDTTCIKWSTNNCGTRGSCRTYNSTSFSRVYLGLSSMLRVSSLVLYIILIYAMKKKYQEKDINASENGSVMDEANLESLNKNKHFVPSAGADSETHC


Tests used:
Assay in all cases: flow cytometry uptake in Sf9 cells expressing the transporter
OATP1B3 = molecular target: T1, OATP1B3; format: cell-based
OATP1B1 = molecular target: T2, OATP1B1; format: cell-based
[1] = substrate: O=C1OC2(c3ccc(O)cc3Oc3cc(O)ccc32)c2ccccc21; format: cell-based, Homo sapiens

Molecule	Km (OATP1B3)	Km (OATP1B1)	Km [1]
O=C1OC2(c3ccc(O)cc3Oc3cc(O)ccc32)c2ccccc21 [Na-Fluo, sodium fluorescein]	38.6 µM	–	–
fluorescein-methotrexate [Fl-MTX]	0.53 µM	0.23 µM	–
OATP1B1 (Homo sapiens) (protein) MDQNQHLNKTAEAQPSENKKTRYCNGLKMFLAALSLSFIAKTLGAIIMKSSIIHIERRFEISSSLVGFIDGSFEIGNLLVIVFVSYFGSKLHRPKLIGIGCFIMGIGGVLTALPHFFMGYYRYSKETNINSSENSTSTLSTCLINQILSLNRASPEIVGKGCLKESGSYMWIYVFMGNMLRGIGETPIVPLGLSYIDDFAKEGHSSLYLGILNAIAMIGPIIGFTLGSLFSKMYVDIGYVDLSTIRITPTDSRWVGAWWLNFLVSGLFSIISSIPFFFLPQTPNKPQKERKASLSLHVLETNDEKDQTANLTNQGKNITKNVTGFFQSFKSILTNPLYVMFVLLTLLQVSSYIGAFTYVFKYVEQQYGQPSSKANILLGVITIPIFASGMFLGGYIIKKFKLNTVGIAKFSCFTAVMSLSFYLLYFFILCENKSVAGLTMTYDGNNPVTSHRDVPLSYCNSDCNCDESQWEPVCGNNGITYISPCLAGCKSSSGNKKPIVFYNCSCLEVTGLQNRNYSAHLGECPRDDACTRKFYFFVAIQVLNLFFSALGGTSHVMLIVKIVQPELKSLALGFHSMVIRALGGILAPIYFGALIDTTCIKWSTNNCGTRGSCRTYNSTSFSRVYLGLSSMLRVSSLVLYIILIYAMKKKYQEKDINASENGSVMDEANLESLNKNKHFVPSAGADSETHC	–	–	25.73 µM
